Experimental data: the supplement of paper PMC10307832

Assays:
Assay in all cases: relative viability (nuclei count vs DMSO), 5 days (fraction); higher = more cells survive
AZ3146 + Bortezomib = compound: CN1CCC(CC1)OC2=CC(=C(C=C2)NC3=NC=C4C(=N3)N(C(=O)N4C)C5CCCC5)OC [AZ3146] + CC(C)C[C@H](NC(=O)[C@H](Cc1ccccc1)NC(=O)c1cnccn1)B(O)O [Bortezomib] (partner 0.002 µM)
Outline: (§1)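 Cells from lung cancer lines were seeded into 1536-well plates and, one day later, dosed by pin tool. Treatments were either a single drug or a fixed dose of an anchor drug with five library-drug doses (not always all listed) in √10 steps. After 5 days, nuclei were stained in a one-step fixation (final 0.05% Triton X-100, 1% formaldehyde, 1 ug/ml Hoechst) and counted on 4× images, and relative viability is the treated-to-vehicle nuclei ratio, as the median of duplicate plates.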

AZ3146 + Crizotinib = compound: CN1CCC(CC1)OC2=CC(=C(C=C2)NC3=NC=C4C(=N3)N(C(=O)N4C)C5CCCC5)OC [AZ3146] + C[C@@H](Oc1cc(-c2cnn(C3CCNCC3)c2)cnc1N)c1c(Cl)ccc(F)c1Cl [Crizotinib] (partner 1 µM)
Outline: as §1

AZ3146 + Decitabine = compound: CN1CCC(CC1)OC2=CC(=C(C=C2)NC3=NC=C4C(=N3)N(C(=O)N4C)C5CCCC5)OC [AZ3146] + Nc1ncn([C@H]2C[C@H](O)[C@@H](CO)O2)c(=O)n1 [Decitabine] (partner 2 µM)
Outline: as §1

AZ3146 + Olaparib = compound: CN1CCC(CC1)OC2=CC(=C(C=C2)NC3=NC=C4C(=N3)N(C(=O)N4C)C5CCCC5)OC [AZ3146] + O=C(c1cc(Cc2n[nH]c(=O)c3ccccc23)ccc1F)N1CCN(C(=O)C2CC2)CC1 [Olaparib] (partner 8 µM)
Outline: as §1

Q: Which results are given for UMC-11?
A: relative viability (AZ3146 + Bortezomib; first compound 0.08 µM): 0.814; relative viability (AZ3146 + Bortezomib; first compound 0.253 µM): 0.661; relative viability (AZ3146 + Bortezomib; first compound 0.8 µM): 0.598; relative viability (AZ3146 + Bortezomib; first compound 2.53 µM): 0.675; relative viability (AZ3146 + Bortezomib; first compound 8 µM): 0.635; relative viability (AZ3146 + Crizotinib; first compound 0.08 µM): 0.569; relative viability (AZ3146 + Crizotinib; first compound 0.253 µM): 0.636; relative viability (AZ3146 + Crizotinib; first compound 0.8 µM): 0.461; relative viability (AZ3146 + Crizotinib; first compound 2.53 µM): 0.177; relative viability (AZ3146 + Crizotinib; first compound 8 µM): 0.136; relative viability (AZ3146 + Decitabine; first compound 0.08 µM): 0.435; relative viability (AZ3146 + Decitabine; first compound 0.253 µM): 0.558; relative viability (AZ3146 + Decitabine; first compound 0.8 µM): 0.454; relative viability (AZ3146 + Decitabine; first compound 2.53 µM): 0.579; relative viability (AZ3146 + Decitabine; first compound 8 µM): 0.385; relative viability (AZ3146 + Olaparib; first compound 0.08 µM): 0.396; relative viability (AZ3146 + Olaparib; first compound 0.253 µM): 0.405; relative viability (AZ3146 + Olaparib; first compound 0.8 µM): 0.36; relative viability (AZ3146 + Olaparib; first compound 2.53 µM): 0.326; relative viability (AZ3146 + Olaparib; first compound 8 µM): 0.279
